For six compounds, IC50 and inhibition results are on record in ChEMBL document CHEMBL1158288, “Antiinflammatory activity of coumarins from Santolina oblongifolia” (J Nat Prod, 1996).

The nature of assay [1]: Antiinflammatory activity in NMRI mouse macrophages assessed as inhibition of A23187-induced PGE2 release by Ellman's method. The format is functional, cell-based. To be noted: macrophage.
Assay [2] can be described thus: Antiinflammatory activity in NMRI mouse macrophages assessed as inhibition of A23187-induced PGE2 release at 100 uM by Ellman's method relative to control. It is filed as functional. Conditions: Macrophage.
Assay [3] can be described thus: Antiinflammatory activity in NMRI mouse macrophages assessed as inhibition of A23187-induced LTC4 release at 25 uM by Ellman's method relative to control. It is filed as functional. To be noted: Macrophage.
The nature of assay [4]: Antiinflammatory activity in NMRI mouse macrophages assessed as inhibition of A23187-induced LTC4 release by Ellman's method. The format is functional, cell-based. To be noted: macrophage.
Assay [5] is described as follows: Antiinflammatory activity in NMRI mouse macrophages assessed as inhibition of A23187-induced LTC4 release at 100 uM by Ellman's method relative to control. The format is functional. Conditions: Macrophage.

Regarding `COc1cc2ccc(=O)oc2cc1O` [SCOPOLETIN], the IC50 in assay [1] was found to be 5 µmol. In addition, the inhibition at 100 µM in assay [2] came out at 77.4%. In addition, in assay [3], the inhibition at 25 µM worked out at 8.8%.
`CC(Cc1ccc(O)c(O)c1)C(C)Cc1ccc(O)c(O)c1` (configuration not stated) [NORDIHYDROGUAIARETIC ACID]: the IC50 in assay [4] is 6 µmol. Moreover, the inhibition at 100 µM in assay [5] turned out to be 78.7%.
Consider `O=c1ccc2cc(O)c(O)cc2o1` [ESCULETIN], for which the IC50 in assay [1] came to 11 µmol; in assay [4] it was 18 µmol. Also, the inhibition at 100 µM in assay [2] amounted to 71.7%. In addition, in assay [3], the inhibition at 25 µM came out at 71.2%.
`COc1cc2ccc(=O)oc2cc1O[C@@H]1O[C@H](CO)[C@@H](O)[C@H](O)[C@H]1O` [SCOPOLIN]: in assay [1], the IC50 was determined as 77 µmol. For the same compound, the inhibition at 100 µM in assay [2] is 75.7%. Also, the inhibition at 25 µM in assay [3] was 55%.
`COc1ccc2ccc(=O)oc2c1` [HERNIARIN]: in assay [1], the IC50 stood at 84 µmol. Further, the inhibition at 100 µM in assay [2] is 65.7%. For the same compound, in assay [3], the inhibition at 25 µM was found to be 2.94%.
For `COc1ccc2c(c1)c(CC(=O)O)c(C)n2C(=O)c1ccc(Cl)cc1` [INDOMETHACIN], in assay [1], the IC50 stood at 22 µmol. In addition, the inhibition at 100 µM in assay [2] was found to be 78.1%.
